From ChEMBL document CHEMBL1201862, “PubChem BioAssay data set” (2004) come the findings set out here.

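Following 48 hours of exposure in 96-well plates, responses at five concentrations were used to interpolate endpoints linearly. GI50: concentration for 50% inhibition of growth.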 The source made the active and inactive calls. No stated cut-off is given here; in the data, active = GI50 up to about 1.1 µM and inactive = higher.

Experiment in all cases: NCI anticancer screen, dose series, 48 h
For assay [1], the system named is HL-60.
Assay [2] relates to SN12C.
Assay [3] deals with OVCAR-4.
Assay [4] deals with OVCAR-3.
The test system of assay [5] is K562.
Assay [6] has as its system SW-620.
The subject of assay [7] is A498.
In assay [8] the test system is SK-MEL-2.
In assay [9] the test system is RXF 393.
The test system of assay [10] is ACHN.
Assay [11] has as its system Malme-3M.
Assay [12] has as its system NCI-H23.
Assay [13] concerns KM12.
Assay [14] concerns EKVX.
Assay [15] has as its system SNB-19.
Assay [16] deals with M14.
Assay [17] relates to SF-268.
Assay [18] has as its system OVCAR-8.

As to `Cc1ccc(S(=O)(=O)c2ccc(C)cc2[N+](=O)[O-])cc1`, the GI50 in [1] is 29.3 µM (inactive); in assay [2], > 100 µM (inactive); in assay [3], > 100 µM (inactive); in assay [4] it was 46.9 µM (inactive); in [5], 50.5 µM (inactive); in [6], > 100 µM (inactive). Also, the GI50 in [7] is 19.4 µM (inactive); in assay [8] it was > 100 µM (inactive); in assay [9], 82 µM (inactive); in [10] it was > 100 µM (inactive); in [11] it was > 100 µM (inactive); in assay [12] it was 53.7 µM (inactive). For the same molecule, the GI50 in [13], in [14], in [15], in assay [16] and in assay [17] was > 100 µM (inactive) throughout.

For `O=C(/C=C/c1ccc(Cl)c(Cl)c1)c1ccc2ccccc2c1`, the GI50 is 32.7 µM (inactive) in assay [1]; 19.7 µM (inactive) in assay [2]; > 100 µM (inactive) in [3]; > 100 µM (inactive) in [4]; > 100 µM (inactive) in [5]; > 100 µM (inactive) in assay [6]. Also, the GI50 in [7], in assay [8], in assay [9], in assay [10], in assay [11] and in assay [12] was > 100 µM (inactive) throughout. Further, the GI50 in [18], in assay [13], in assay [14], in assay [15], in [16] and in assay [17] was > 100 µM (inactive) in each case.

Turning to `COc1c(Cl)c(Cl)c(OC)c2c1C(=O)C=CC2=O`, the GI50 in [1] is 2.17 µM (inactive); in [2] it was 23.4 µM (inactive); in [3] it was 15.3 µM (inactive); in assay [4] it was 17.3 µM (inactive); in assay [5] it was 7.85 µM (inactive); in assay [6], 16.8 µM (inactive). Further, the GI50 is > 100 µM (inactive) in assay [7]; 17.3 µM (inactive) in [8]; 17.1 µM (inactive) in [9]; 15.1 µM (inactive) in [10]; 15.1 µM (inactive) in assay [11]; 40.4 µM (inactive) in assay [12]. For the same molecule, the GI50 in assay [18] was 17.1 µM (inactive); in assay [13], 17.5 µM (inactive); in assay [14], 17.4 µM (inactive); in assay [15], 32.1 µM (inactive); in [16], 19.6 µM (inactive); in [17], 15.6 µM (inactive).

As for `CCOc1ccc(NC(=O)/C(=C/c2ccccc2)C(C)=O)cc1`, the GI50 in assay [1] was 2.32 µM (inactive); in assay [2], 13.2 µM (inactive); in [3], 13.4 µM (inactive); in assay [4] it was 12.5 µM (inactive); in assay [5], 5.27 µM (inactive); in assay [6] it was 13.2 µM (inactive). Further, the GI50 in assay [7] was 18.1 µM (inactive); in assay [8], 13.2 µM (inactive); in assay [9], 5.32 µM (inactive); in assay [10], 15.3 µM (inactive); in [11], 16.5 µM (inactive); in [12], 10.9 µM (inactive). Moreover, the GI50 in [18] was 12.1 µM (inactive); in assay [13], 7.1 µM (inactive); in assay [14], 17.8 µM (inactive); in assay [15], 12.1 µM (inactive); in [16], 12.3 µM (inactive); in [17], 11.3 µM (inactive).

`O=c1oc2ccccc2[n+]([O-])c1-c1ccccc1`: the GI50 in assay [1], in assay [2], in assay [3], in [4], in assay [5] and in assay [6] was > 100 µM (inactive) in each case. Also, the GI50 in assay [7], in assay [8], in assay [9], in assay [10], in assay [11] and in [12] was > 100 µM (inactive) each time. In addition, the GI50 in assay [18], in assay [13], in assay [14], in [15], in [16] and in assay [17] was > 100 µM (inactive) throughout.

In the case of `COc1cc2c(cc1C)[n+]([O-])c(C)c(C(=O)C/C(=N/NC(=O)C[N+](C)(C)C)C(=O)Nc1cccc(Cl)c1C)[n+]2[O-]`, the GI50 in assay [1], in assay [2], in assay [3], in [4], in [5] and in [6] was > 100 µM (inactive) each time. Also, the GI50 in assay [7], in [8], in assay [9], in assay [10], in assay [11] and in [12] was > 100 µM (inactive) throughout. In addition, the GI50 in [18], in [13], in [14], in assay [15], in assay [16] and in assay [17] was > 100 µM (inactive) each time.

With `CN(CCN1C(=O)c2cc([N+](=O)[O-])cc3cc([N+](=O)[O-])cc(c23)C1=O)CCN1C(=O)c2cc([N+](=O)[O-])cc3cc([N+](=O)[O-])cc(c23)C1=O`, the GI50 in assay [1] is 0.234 µM (active); in assay [2], 0.332 µM (active); in assay [3] it was 0.524 µM (active); in [4], 0.646 µM (active); in [5], 0.23 µM (active); in assay [6], 0.0741 µM (active). Moreover, the GI50 in [7] was 12.8 µM (inactive); in assay [8], 0.764 µM (active); in assay [9], 0.238 µM (active); in assay [10], 0.264 µM (active); in assay [11] it was 0.815 µM (active); in assay [12], 1.74 µM (inactive). The GI50 is 0.267 µM (active) in assay [18]; 0.681 µM (active) in [13]; 4.26 µM (inactive) in [14]; 0.652 µM (active) in [16]; 0.458 µM (active) in [17].

Turning to `C(=C\c1c2oc(-c3ccccc3)cc(-c3ccccc3)c-2c2ccccc12)/C=C1\c2ccccc2-c2c(-c3ccccc3)cc(-c3ccccc3)[o+]c21.[O-][Cl+3]([O-])([O-])[O-]`, the GI50 in assay [1], in assay [2], in assay [3], in assay [4], in [5] and in [6] was > 100 µM (inactive) in each case. In addition, the GI50 in [7], in assay [8], in assay [9], in assay [10], in [11] and in assay [12] was > 100 µM (inactive) in each case. In addition, the GI50 in assay [18] was > 100 µM (inactive); in assay [14], > 100 µM (inactive); in assay [15], > 100 µM (inactive); in assay [16], 37 µM (inactive); in [17], > 100 µM (inactive).

In the case of `CN(C)C=C1C(=O)N(C)C(=O)N(C)C1=O`, the GI50 in [1], in assay [2], in assay [3], in assay [4], in assay [5] and in [6] was > 100 µM (inactive) in each case. For the same molecule, the GI50 in [7], in [8], in assay [9], in assay [10], in assay [11] and in [12] was > 100 µM (inactive) throughout. Moreover, the GI50 in assay [18], in [13], in [14], in assay [15] and in assay [16] was > 100 µM (inactive) in each case.

For `NNC(=O)CC(=O)Nc1ccccc1F`, the GI50 in assay [1], in assay [2], in assay [3], in assay [4], in [5] and in assay [6] was > 100 µM (inactive) throughout. In addition, the GI50 in assay [7], in assay [9], in assay [10], in assay [11], in assay [12] and in assay [18] was > 100 µM (inactive) each time. The GI50 in assay [13], in assay [14], in [15], in assay [16] and in assay [17] was > 100 µM (inactive) in each case.

Regarding `C[N+](C)(C)CC(=O)N/N=C(/C(=O)Nc1ccc(Br)cc1)C1C(=O)NC(=O)NC1=O`, the GI50 in [1], in [2], in [3], in assay [4], in assay [5] and in assay [6] was > 100 µM (inactive) each time. Also, the GI50 in [7], in assay [8], in assay [9], in assay [10], in [11] and in assay [12] was > 100 µM (inactive) in each case. Also, the GI50 in assay [13], in assay [14], in assay [15], in [16] and in [17] was > 100 µM (inactive) throughout.
